Experimental findings from patent US7700553B2, “Selective inhibition of NF-κB activation by peptides designed to disrupt nemo oligomerization” (priority 2003, dated 2010) are described below.

Ends that are not written are not given here. BODIPY = not defined here

Test [1] addresses T1, CC2 peptide composing the minimal oligomerization domain of NEMO (Mus musculus, UniProt O88522).
T1 construct: SKGMQLEDLRQQLQQAEEA; made in house; host or cells: chemical solid-phase peptide synthesis (Fmoc/tBu), not expressed
T1 sequence (O88522 248-287): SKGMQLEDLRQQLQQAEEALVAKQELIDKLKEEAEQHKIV
The test can be described thus: Fluorescence anisotropy titration with CC2 peptide. The format is binding, murine. The conditions noted are these: in vitro, fluorescence polarization. As to the method: FIG. 7: Association of Ant-CC2 and Ant-LZ Peptides to the CC2 Peptide (A) Direct titration of BODIPY-Ant-CC2 (1 μM) with CC2 by fluorescence anitropy. The concentration of CC2 was determined by amino acid analysis. Anisotropy values of BODIPY-Ant-CC2 in milliunits (mA) were plotted against an increasing concentration of the CC2 peptide. […] The two dashed lines represent a stoichiometric titration and intersect at an CC2 concentration of […]. Given the 1 μM concentration of the BODIPY-Ant-CC2, this gives a complex stoechiometrie of 0.8. (B) Direct titration of BODIPY-Ant-LZ (0.1 μM with CC2 by fluorescence anitropy. The anisotropy values of the BODIPY-Ant-LZ alone (white bar) or in the presence of the CC2 peptide (30 μM, grey bar; 100 μM, black bar) are given in milliunits (mA).
Anisotropy measurements were performed with a PTI Quantamaster fluorometer equipped with polarizers for the excitation and emission beams. This instrument uses a PMT in the L-configuration. […] Steady-state fluorescence anisotropy was expressed as millianisotropy (mA) and was calculated according to the equations: (1) A=(IVV−GIVH)/(IVV+2GIVH); (2) G=IHV/IHH; where A is anisotropy, G is a correction factor for wavelength-dependent distortion and I is the fluorescence intensity component (subscript referring to the vertical and horizontal positioning at the excitation and emission polarizers, respectively). […]

Test [2] has as its system LPS-induced NF-κB activation in 70Z/3-C3 cells. The test can be described thus: NF-κB inhibition assay, first procedure (NF-κB dependent β-galactosidase reporter, LPS stimulation). The format is cell-based, murine. As to conditions: 20 μM peptide; for effect on LPS-induced NF-κB activation (in words): 2 h, then 5 h LPS.
Test [3] has the same test system. Put plainly: NF-κB inhibition assay, second more stringent procedure (peptide washed out, 24 h growth before LPS). It counts as cell-based, murine. As to conditions: 10 μM peptide. An excerpt: FIG. 4: Specific Inhibition of NF-κB Activation in Response to LPS Depends on a Few Mutations in the Hydrophobic Core of CC2 and LZ Coiled-Coils Left panels show a helical wheel diagram of CC2 (A) and LZ (B) peptides. The view is from the top the molecule. The (a) through (g) positions, which are an essential feature of coiled coil sequence (Vinson, 2002, Mol. Cell. Biol.) represent sequential positions in each peptide sequence. The first (a) and fourth (d) positions that are generally occupied by hydrophobic amino acids constitute the hydrophobic core for parallel as well as antiparallel-coiled coils. […] NF-κB activity was measured using the β-galactosidase assay. […]
FIG. 5: Inhibition of NF-κB Activation by the LZ Peptide Occurs Through the Formation of Specific Coiled-Coil Strands. […] NF-κB activity was measured using the β-galactosidase assay. […]

For “B-CRQIKIWFQNRRMKWKKLKAQADIYKADFQAERHAREKLVEKKEYLQEQLEQLQREFNKL (C(BODIPY)RQIKIWFQNRRMKWKKLKAQADIYKADFQAERHAREKLVEKKEYLQEQLEQLQREFNKL-NH2; not fully specified (N-terminus); reading uncertain) [BODIPY-Ant-LZ (WT)]”, in test [1], the “binding to the CC2 peptide (in words)” value is listed as “binds in vitro to the CC2 peptide”. Further, the “effect on LPS-induced NF-κB activation (in words)” value in test [2] is “decreased significantly the NF-κB activation”; in test [2] (listed as “Leucine zipper” peptide), “completely eliminates cell response”. Further, the “basal NF-κB activity in the absence of LPS (in words)” value in test [2] (no LPS) was “without affecting the intrinsic basal NF-κB activity”.

“B-CRQIKIWFQNRRMKWKKLKAQADIYKADFQAERHAREKLVEKKEYSQEQLEQSQREFNKL (C(BODIPY)RQIKIWFQNRRMKWKKLKAQADIYKADFQAERHAREKLVEKKEYSQEQLEQSQREFNKL-NH2; not fully specified (N-terminus); printed as B-CRQIKIWFQNRRMKWKKLKAQADIYKADFQAERHAREKLVEKKEYSQEQLEQSQREFNKL; reading uncertain) [BODIPY-Ant-LZ (Mu)]”: the “inhibition of LPS-induced NF-κB activation compared to the control” value in test [3] came out at 15%.

Turning to “B-CRQIKIWFQNRRMKWKKSKGMQLEDLRQQGQQAEEAGVAKQELGDKLKEEAEQHKIV (C(BODIPY)RQIKIWFQNRRMKWKKSKGMQLEDLRQQGQQAEEAGVAKQELGDKLKEEAEQHKIV-NH2; not fully specified (N-terminus); printed as B-CRQIKIWFQNRRMKWKKSKGMQLEDLRQQGQQAEEAGVAKQELGDKLKEEAEQHKIV; reading uncertain) [BODIPY-Ant-CC2 (Mu)]”, the “effect on LPS-induced NF-κB activation (in words)” value in test [3] is “did not affect the NF-κB activation”.
